Six compounds from patent US8003660B2, “Modulators of muscarinic receptors” (Vertex Pharmaceuticals Incorporated, priority 2006, dated 2011) can be followed below.

What all share (assay type): cell-based
The target of one assay is T1, M1 muscarinic receptor (Homo sapiens, UniProt P11229).
T1 construct: expressed in transfected cells; host or cells: CHO (M1-CHO)
T1 sequence (P11229 1-460): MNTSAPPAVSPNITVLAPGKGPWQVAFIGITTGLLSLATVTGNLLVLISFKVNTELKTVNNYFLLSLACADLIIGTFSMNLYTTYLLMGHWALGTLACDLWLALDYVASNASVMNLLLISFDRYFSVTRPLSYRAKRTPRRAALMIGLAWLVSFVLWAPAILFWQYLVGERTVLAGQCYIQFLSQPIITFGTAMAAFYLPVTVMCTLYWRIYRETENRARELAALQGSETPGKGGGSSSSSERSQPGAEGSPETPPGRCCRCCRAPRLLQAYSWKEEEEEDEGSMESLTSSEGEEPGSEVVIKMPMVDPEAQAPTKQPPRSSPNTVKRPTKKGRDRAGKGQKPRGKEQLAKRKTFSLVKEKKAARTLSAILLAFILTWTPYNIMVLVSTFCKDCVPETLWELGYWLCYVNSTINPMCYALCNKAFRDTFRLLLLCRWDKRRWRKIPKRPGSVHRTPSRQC
The experiment in a line: Functional mobilization of intracellular calcium (FLIPR) in CHO cells expressing M1. The following applies: for M1 Activity: CHO cells expressing M1, FLIPR calcium assay; for Emax: CHO, 100% efficacy = maximum response obtained with the Carbachol control. A digest of the protocol: (§1)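 Recombinant CHO cells loaded with Fluo-3 AM or Calcium 3 dye in pH 7.4 buffer containing 1 mM probenecid, with 0.5% final DMSO. For agonism, compound is added directly. For inhibition, it is preincubated 15 min, or co-applied, before carbachol at EC80. FLIPR fluorescence (ex 488, em 540 nm) is recorded for 60 s.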

The target in the next assay is T2, M2 muscarinic receptor (Homo sapiens, UniProt P08172).
T2 construct: expressed in transfected cells; host or cells: CHO (M2-CHO)
T2 sequence (P08172 1-466): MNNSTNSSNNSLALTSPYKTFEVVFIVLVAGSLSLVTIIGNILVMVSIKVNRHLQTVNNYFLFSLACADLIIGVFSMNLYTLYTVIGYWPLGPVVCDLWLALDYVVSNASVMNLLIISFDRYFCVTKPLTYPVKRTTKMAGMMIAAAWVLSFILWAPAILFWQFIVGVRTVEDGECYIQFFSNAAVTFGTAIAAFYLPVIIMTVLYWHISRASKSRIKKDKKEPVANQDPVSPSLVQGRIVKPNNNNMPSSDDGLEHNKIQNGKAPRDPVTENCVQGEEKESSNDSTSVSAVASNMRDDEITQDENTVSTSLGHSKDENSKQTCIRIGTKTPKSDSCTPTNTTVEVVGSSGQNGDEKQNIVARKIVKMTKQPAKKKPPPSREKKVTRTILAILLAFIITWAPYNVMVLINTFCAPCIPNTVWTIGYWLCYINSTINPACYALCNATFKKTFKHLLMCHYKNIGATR
The experiment in a line: Functional mobilization of intracellular calcium (FLIPR) in CHO cells expressing M2. The following applies: for M2 Activity: CHO cells expressing M2, FLIPR calcium assay; for Emax: CHO, 100% efficacy = maximum response obtained with the Carbachol control. The gist of the method: as §1

The target of another assay is T3, M3 muscarinic receptor (Homo sapiens, UniProt P20309).
T3 construct: expressed in transfected cells; host or cells: CHO (M3-CHO)
T3 sequence (P20309 whole entry): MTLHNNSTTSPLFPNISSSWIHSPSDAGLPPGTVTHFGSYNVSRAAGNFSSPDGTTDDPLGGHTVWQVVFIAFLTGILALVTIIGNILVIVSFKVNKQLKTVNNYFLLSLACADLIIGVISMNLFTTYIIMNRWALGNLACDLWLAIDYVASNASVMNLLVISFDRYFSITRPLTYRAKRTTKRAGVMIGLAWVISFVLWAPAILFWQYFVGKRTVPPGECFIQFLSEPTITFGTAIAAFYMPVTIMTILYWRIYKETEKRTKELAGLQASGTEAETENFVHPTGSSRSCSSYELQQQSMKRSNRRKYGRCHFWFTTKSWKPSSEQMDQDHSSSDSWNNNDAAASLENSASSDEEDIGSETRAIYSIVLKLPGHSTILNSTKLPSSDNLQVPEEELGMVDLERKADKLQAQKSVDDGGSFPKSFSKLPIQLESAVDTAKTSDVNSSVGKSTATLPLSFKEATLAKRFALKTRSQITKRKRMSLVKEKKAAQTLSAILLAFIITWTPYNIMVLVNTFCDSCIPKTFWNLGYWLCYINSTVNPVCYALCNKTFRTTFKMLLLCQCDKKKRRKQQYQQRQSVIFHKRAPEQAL
The assay can be described thus: Functional mobilization of intracellular calcium (FLIPR) in CHO cells expressing M3. The following applies: for M3 Activity: CHO cells expressing M3, FLIPR calcium assay; for Emax: CHO, 100% efficacy = maximum response obtained with the Carbachol control. The gist of the method:
as §1

For a further assay, the target named is T4, M4 muscarinic receptor (Homo sapiens, UniProt P08173).
T4 construct: expressed in transfected cells; host or cells: CHO (M4-CHO)
T4 sequence (P08173 1-479): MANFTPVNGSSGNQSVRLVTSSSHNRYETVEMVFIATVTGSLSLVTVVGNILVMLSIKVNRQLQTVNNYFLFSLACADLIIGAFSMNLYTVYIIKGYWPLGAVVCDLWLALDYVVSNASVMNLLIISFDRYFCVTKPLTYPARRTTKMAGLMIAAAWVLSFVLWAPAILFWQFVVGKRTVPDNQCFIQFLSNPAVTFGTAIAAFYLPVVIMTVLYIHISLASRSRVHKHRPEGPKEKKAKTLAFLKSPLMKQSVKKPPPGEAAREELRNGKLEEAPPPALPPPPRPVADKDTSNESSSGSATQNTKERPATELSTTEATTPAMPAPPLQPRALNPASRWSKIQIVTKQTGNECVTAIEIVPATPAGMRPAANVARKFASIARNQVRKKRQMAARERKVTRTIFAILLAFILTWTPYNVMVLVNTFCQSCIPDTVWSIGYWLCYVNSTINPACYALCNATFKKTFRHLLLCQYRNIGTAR
The experiment in a line: Functional mobilization of intracellular calcium (FLIPR) in CHO cells expressing M4. The following applies: for M4 Activity: CHO cells expressing M4, FLIPR calcium assay; for Emax: CHO, 100% efficacy = maximum response obtained with the Carbachol control. A digest of the protocol:
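Calcium flux is read on FLIPR over 60 sec at 488/540 nm in muscarinic-receptor CHO lines. Antagonist mode adds carbachol at EC80 after 15 min compound preincubation or with simultaneous co-application. Agonist mode adds compound alone. Cells carry Fluo-3 or Calcium 3 dye in probenecid-containing pH 7.4 buffer, 0.5% DMSO final.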

Take `CCN(C(C)=O)[C@H]1CCC2(CCN(CCC(C)C)CC2)c2ccccc21` [compound 213]: on M1 muscarinic receptor, the “M1 Activity” value is “++ (activity was measured to be from 2.0 μM to 5.0 μM)” and the Emax was 25 to 100%. Further, at M2 muscarinic receptor, the “M2 Activity” value is “+ (activity was measured to be greater than 5.0 μM)” and the maximal response (Emax) is under 25%. Further, at M3 muscarinic receptor, the “M3 Activity” value was “+ (activity was measured to be greater than 5.0 μM)” and the Emax was under 25%. Further, on M4 muscarinic receptor, the “M4 Activity” value is recorded as “+++ (activity was measured to be less than 2.0 μM)” and the Emax lay in the range of 25 to 100%.

In the case of `CC(C)(C)CCN1CCC2(CC[C@@H](NC(=O)C3CC3)c3ccc(F)cc32)CC1` [compound 214], at M1 muscarinic receptor, the “M1 Activity” value is reported as “+++ (activity was measured to be less than 2.0 μM)” and the maximal effect (Emax) lay in the range of 25 to 100%. Besides, at M2 muscarinic receptor, the “M2 Activity” value is “+++ (activity was measured to be less than 2.0 μM)” and the Emax was under 25%. Also, at M3 muscarinic receptor, the “M3 Activity” value is “+ (activity was measured to be greater than 5.0 μM)” and the Emax was under 25%. Moreover, on M4 muscarinic receptor, the “M4 Activity” value was “+++ (activity was measured to be less than 2.0 μM)” and the Emax fell in the range of 25 to 100%.

Turning to `COCCC(=O)N[C@H]1CCC2(CCN(CCC(C)(C)C)CC2)c2cc(F)ccc21` [compound 215], on M1 muscarinic receptor, the “M1 Activity” value is listed as “+++ (activity was measured to be less than 2.0 μM)” and the Emax was 25 to 100%. Also, on M2 muscarinic receptor, the “M2 Activity” value was “+++ (activity was measured to be less than 2.0 μM)” and the Emax is 25 to 100%. Moreover, on M3 muscarinic receptor, the “M3 Activity” value is “+ (activity was measured to be greater than 5.0 μM)” and the Emax was under 25%. On M4 muscarinic receptor, the “M4 Activity” value is listed as “+++ (activity was measured to be less than 2.0 μM)” and the maximal response (Emax) fell in the range of 25 to 100%.

For the compound `Cc1cc(C(=O)N[C@@H]2CCC3(CCN(CCC(C)(C)C)CC3)c3ccccc32)nn1C` [compound 216], on M1 muscarinic receptor, the “M1 Activity” value is reported as “++ (activity was measured to be from 2.0 μM to 5.0 μM)” and the Emax lay within 25 to 100%. Besides, at M2 muscarinic receptor, the “M2 Activity” value is “++ (activity was measured to be from 2.0 μM to 5.0 μM)” and the Emax was in the range of 25 to 100%. At M3 muscarinic receptor, the “M3 Activity” value is “+ (activity was measured to be greater than 5.0 μM)” and the maximal effect (Emax) is under 25%. Moreover, on M4 muscarinic receptor, the “M4 Activity” value is on record as “+++ (activity was measured to be less than 2.0 μM)” and the Emax fell in the range of 25 to 100%.

As to `CC(C)(C)CCN1CCC2(CC[C@@H](NC(=O)C3CCOCC3)c3ccc(F)cc32)CC1` [compound 217], on M1 muscarinic receptor, the “M1 Activity” value is reported as “++ (activity was measured to be from 2.0 μM to 5.0 μM)” and the Emax lay in the range of 25 to 100%. Besides, on M2 muscarinic receptor, the “M2 Activity” value is “+ (activity was measured to be greater than 5.0 μM)” and the maximum response (Emax) was under 25%. Moreover, on M3 muscarinic receptor, the “M3 Activity” value is given as “+ (activity was measured to be greater than 5.0 μM)” and the Emax was under 25%. Moreover, on M4 muscarinic receptor, the “M4 Activity” value was “+++ (activity was measured to be less than 2.0 μM)” and the maximal effect (Emax) was 25 to 100%.

As for `CC(=O)N(C)[C@H]1CCC2(CCN(CCC(C)(C)C)CC2)c2cc(F)ccc21` [compound 218], on M1 muscarinic receptor, the “M1 Activity” value is listed as “+++ (activity was measured to be less than 2.0 μM)” and the Emax lay within 25 to 100%. Moreover, at M2 muscarinic receptor, the “M2 Activity” value is “+++ (activity was measured to be less than 2.0 μM)” and the Emax is under 25%. Further, on M3 muscarinic receptor, the “M3 Activity” value is given as “+ (activity was measured to be greater than 5.0 μM)” and the Emax is under 25%. Moreover, at M4 muscarinic receptor, the “M4 Activity” value is reported as “+++ (activity was measured to be less than 2.0 μM)” and the Emax was in the range of 25 to 100%.
